pIC50: −log10 of the molar value. The source made the active and inactive calls. No cut-off for these calls is given here.
Experiments:
[1] = Neurotoxicity against rat PC12 cells assessed as survival rate incubated for 24 hrs by MTT assay relative to control; assay type: toxicity, cell-based, PC-12; design: concentration or dose not given beside the values; settings: read-out: Survival
[2] = Neurotoxicity against human SH-SY5Y cells incubated for 24 hrs by MTT assay; assay type: toxicity, cell-based; settings: read-out: LD50
[3] = target: Acetylcholinesterase (Electrophorus electricus) (UniProt O42275); test: Inhibition of electric eel AchE using acetylthiocholine iodide as substrate at <10 uM measured for 3 mins by Ellman's method relative to control
[4] = Effective permeability of compound at 25 ug/ml incubated for 18 hrs by PAMPA-BBB assay; assay type: ADME; settings: dose 25 µg/ml, read-out: Peff
Cholinesterase [5] = target: Cholinesterase (Homo sapiens, UniProt P06276); test: Inhibition of human BChE using butyrylthiocholine iodide as substrate measured for 3 mins by Ellman's method
Cholinesterase [6] = target: Cholinesterase (Equus caballus, UniProt P81908); test: Inhibition of horse serum BuChE using butyrylthiocholine iodide as substrate measured for 3 mins by Ellman's method; assay type: cell-free
[7] = target: Cholinesterase (Equus caballus) (UniProt P81908); test: Inhibition of horse serum BuChE using butyrylthiocholine iodide as substrate at <10 uM measured for 3 mins by Ellman's method relative to control; assay type: cell-free
[8] = Neurotoxicity against mouse HT-22 cells assessed as survival rate incubated for 24 hrs by MTT assay relative to control; assay type: toxicity, cell-based; design: concentration or dose not given beside the values; settings: read-out: Survival
[9] = Neurotoxicity against mouse BV-2 cells incubated for 24 hrs by MTT assay; assay type: toxicity, cell-based; settings: read-out: LD50
Mus musculus [10] = test: Antialzheimer activity against amyloid beta (1 to 42)-induced mouse model of cognitive dysfunction assessed as latency time at 15 mg/kg, po measured for 14 days by Morris Water maze method; assay type: functional, ICR; settings: time 14 day
SH-SY5Y = test: Neuroprotective activity against amyloid beta (1 to 42)-induced injury in human SH-SY5Y cells assessed as cell viability at 0.5 to 50 uM by MTT assay; assay type: functional, cell-based; settings: dose 0.5-50 µM
[11] = Neurotoxicity against human SH-SY5Y cells assessed as survival rate incubated for 24 hrs by MTT assay relative to control; assay type: toxicity, cell-based; design: concentration or dose not given beside the values; settings: read-out: Survival
Mus musculus [12] = test: Antialzheimer activity against amyloid beta (1 to 42)-induced mouse model of cognitive dysfunction assessed as reaching target platform at 15 mg/kg, po measured for 14 days by Morris Water maze method; assay type: functional, organism-based; settings: ICR, time 14.0 day
[13] = Neurotoxicity against mouse HT-22 cells incubated for 24 hrs by MTT assay; assay type: toxicity, cell-based; settings: read-out: LD50
[14] = Neurotoxicity against rat PC12 cells incubated for 24 hrs by MTT assay; assay type: toxicity, cell-based, PC-12; settings: read-out: LD50
Mus musculus [15] = test: Antialzheimer activity against amyloid beta (1 to 42)-induced mouse model of cognitive dysfunction assessed as reduction in latency time at 15 mg/kg, po measured for 14 days by Morris Water maze method; assay type: functional, organism-based; settings: ICR, time 14.0 day
Cholinesterase [16] = target: Cholinesterase (Mus musculus, UniProt Q03311)
Sequence of Cholinesterase (Mus musculus, UniProt Q03311) (Q03311 whole entry): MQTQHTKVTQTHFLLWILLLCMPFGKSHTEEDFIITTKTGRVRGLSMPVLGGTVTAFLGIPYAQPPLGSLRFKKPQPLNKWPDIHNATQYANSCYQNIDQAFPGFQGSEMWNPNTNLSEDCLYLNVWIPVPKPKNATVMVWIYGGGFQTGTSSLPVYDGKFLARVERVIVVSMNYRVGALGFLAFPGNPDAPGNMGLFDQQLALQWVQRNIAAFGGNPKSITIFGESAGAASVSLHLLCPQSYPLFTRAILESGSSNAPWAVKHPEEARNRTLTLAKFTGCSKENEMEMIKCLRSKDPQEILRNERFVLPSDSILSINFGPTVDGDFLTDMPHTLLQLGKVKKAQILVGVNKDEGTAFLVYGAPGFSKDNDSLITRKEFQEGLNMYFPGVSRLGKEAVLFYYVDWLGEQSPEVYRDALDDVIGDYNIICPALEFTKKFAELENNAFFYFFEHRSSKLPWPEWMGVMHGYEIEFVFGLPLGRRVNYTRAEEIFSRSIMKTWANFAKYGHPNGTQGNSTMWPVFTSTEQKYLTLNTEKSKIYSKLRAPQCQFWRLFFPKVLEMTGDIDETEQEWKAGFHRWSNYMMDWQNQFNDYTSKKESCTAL
Description: Inhibition of mouse BChE by Ellman's method

Sequence of Acetylcholinesterase (Electrophorus electricus) (O42275 24-633 limits assumed): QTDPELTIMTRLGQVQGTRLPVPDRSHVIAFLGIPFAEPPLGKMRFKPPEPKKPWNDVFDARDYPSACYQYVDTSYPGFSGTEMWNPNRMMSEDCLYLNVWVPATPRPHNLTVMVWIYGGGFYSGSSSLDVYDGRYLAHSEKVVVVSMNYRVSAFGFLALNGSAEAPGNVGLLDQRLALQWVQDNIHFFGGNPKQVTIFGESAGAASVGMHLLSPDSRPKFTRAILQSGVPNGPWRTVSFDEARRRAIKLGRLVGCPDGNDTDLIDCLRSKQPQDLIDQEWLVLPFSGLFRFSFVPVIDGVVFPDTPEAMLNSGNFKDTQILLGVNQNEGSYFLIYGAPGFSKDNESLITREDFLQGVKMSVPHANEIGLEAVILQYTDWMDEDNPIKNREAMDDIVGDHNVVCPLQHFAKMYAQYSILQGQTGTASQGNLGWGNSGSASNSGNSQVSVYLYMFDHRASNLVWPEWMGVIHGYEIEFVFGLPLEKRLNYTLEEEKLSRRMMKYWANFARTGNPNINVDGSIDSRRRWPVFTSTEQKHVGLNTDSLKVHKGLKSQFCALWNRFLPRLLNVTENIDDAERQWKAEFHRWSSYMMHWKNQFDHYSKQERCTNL
Sequence of Cholinesterase (Homo sapiens, UniProt P06276) (P06276 whole entry): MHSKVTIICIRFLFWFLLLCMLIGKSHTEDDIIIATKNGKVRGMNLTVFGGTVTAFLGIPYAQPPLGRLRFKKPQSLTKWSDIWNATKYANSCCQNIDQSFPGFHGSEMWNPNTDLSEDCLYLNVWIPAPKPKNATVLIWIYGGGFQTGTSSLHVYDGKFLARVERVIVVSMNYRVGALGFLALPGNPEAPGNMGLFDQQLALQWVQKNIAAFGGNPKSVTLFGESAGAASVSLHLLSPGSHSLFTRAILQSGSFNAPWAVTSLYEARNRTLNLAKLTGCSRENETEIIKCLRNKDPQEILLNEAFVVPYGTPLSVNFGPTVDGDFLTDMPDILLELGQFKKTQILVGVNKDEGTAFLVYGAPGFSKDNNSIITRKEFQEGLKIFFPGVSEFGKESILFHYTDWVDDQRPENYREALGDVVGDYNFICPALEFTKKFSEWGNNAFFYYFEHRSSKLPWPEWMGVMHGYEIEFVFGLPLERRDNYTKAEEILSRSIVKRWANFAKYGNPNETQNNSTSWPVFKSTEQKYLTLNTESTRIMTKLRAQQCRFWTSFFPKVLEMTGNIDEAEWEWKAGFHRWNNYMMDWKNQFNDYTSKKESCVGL
Sequence of Cholinesterase (Equus caballus, UniProt P81908) (P81908 whole entry): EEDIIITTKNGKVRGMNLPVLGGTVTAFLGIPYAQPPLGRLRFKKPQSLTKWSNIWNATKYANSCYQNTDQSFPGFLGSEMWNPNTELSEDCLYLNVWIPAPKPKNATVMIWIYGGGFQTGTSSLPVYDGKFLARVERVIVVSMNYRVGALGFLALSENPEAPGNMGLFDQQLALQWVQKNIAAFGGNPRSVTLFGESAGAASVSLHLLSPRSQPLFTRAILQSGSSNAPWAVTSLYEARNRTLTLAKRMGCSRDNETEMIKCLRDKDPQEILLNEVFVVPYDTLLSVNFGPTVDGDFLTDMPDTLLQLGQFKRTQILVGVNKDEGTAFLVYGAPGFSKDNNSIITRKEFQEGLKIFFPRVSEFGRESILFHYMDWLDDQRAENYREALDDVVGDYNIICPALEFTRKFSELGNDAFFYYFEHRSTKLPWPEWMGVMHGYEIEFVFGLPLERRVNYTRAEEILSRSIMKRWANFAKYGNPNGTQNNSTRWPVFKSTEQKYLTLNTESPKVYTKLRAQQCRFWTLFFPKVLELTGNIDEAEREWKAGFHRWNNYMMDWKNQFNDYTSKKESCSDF
Sequence of Cholinesterase (Equus caballus) (P81908 whole entry): as above

| SMILES | inhibition [3] | pIC50 (Cholinesterase [6]) | inhibition [7] | also measured |
| --- | --- | --- | --- | --- |
| CCCCN(CC(=O)Nc1ccccc1C)Cc1ccc2ccccc2c1 | 21.9% | 5.83 | 77.9% | viability at 24 h [1]: 49.1%; CC50 at 24 h [2]: 70.2 µM; Papp at 18 h, 25 ug/ml [4]: 13.9 ×10⁻⁶ cm/s; pIC50 (Cholinesterase [5]): 6.74; viability at 24 h [8]: 83.1%; CC50 at 24 h [9]: 19 µM |
| CCCCN(CCCc1ccccc1)Cc1ccc2ccccc2c1 | 23% | 6.64 | 89% | viability at 24 h [1]: 51.9%; Time (Mus musculus [10]): 14.4 s; Papp at 18 h, 25 ug/ml [4]: 10.1 ×10⁻⁶ cm/s; pIC50 (Cholinesterase [5]): 7.96; Activity (SH-SY5Y): inactive; viability at 24 h [8]: 51.2%; viability at 24 h [11]: 85.5%; Activity (Mus musculus [12]): Active; CC50 at 24 h [9]: 34.4 µM |
| O=C(CN(Cc1ccco1)Cc1cccc2ccccc12)Nc1ccccc1 | 19.6% | 4.66 | 47.1% |  |
| Cc1cccc(NC(=O)CN(Cc2ccccc2)Cc2ccco2)c1C | 19.7% | 5.57 | 61.9% | CC50 at 24 h [13]: 46.8 µM; CC50 at 24 h [14]: 32.1 µM; CC50 at 24 h [2]: 35 µM; Papp at 18 h, 25 ug/ml [4]: 9.47 ×10⁻⁶ cm/s; CC50 at 24 h [9]: 16.6 µM |
| O=C(CN(Cc1ccccc1)Cc1ccco1)Nc1ccccc1F | 14.1% | 5.05 | 50.9% |  |
| CN(C)CCCN1c2ccccc2Sc2ccc(Cl)cc21 [CHLORPROMAZINE] |  |  |  | Papp at 18 h, 25 ug/ml [4]: 6.69 ×10⁻⁶ cm/s |
| Cc1ccccc1NC(=O)CN(Cc1ccccc1)Cc1ccco1 | 14.2% | 5.26 | 54.7% |  |
| O=C(CN(Cc1ccc2ccccc2c1)Cc1ccco1)Nc1ccccc1 | 16.9% | 5.65 | 62.9% | viability at 24 h [1]: 100%; Papp at 18 h, 25 ug/ml [4]: 7.81 ×10⁻⁶ cm/s; viability at 24 h [8]: 86.5%; viability at 24 h [11]: 90.7%; CC50 at 24 h [9]: 14 µM |
| O=C(CN(Cc1ccccc1)Cc1ccco1)Nc1cccc(Cl)c1 | 19.6% | 4.32 | 42.8% |  |
| O=C(CN(Cc1ccccc1)Cc1ccco1)Nc1ccccc1Cl | 17.5% | 5.00 | 50.5% |  |
| COc1cc(NC(=O)CN(Cc2ccccc2)Cc2ccco2)cc(OC)c1OC | 16.1% | 4.28 | 18.9% |  |
| COc1cc2c(cc1OC)C(=O)C(CC1CCN(Cc3ccccc3)CC1)C2 (centres undefined) |  |  |  | Activity (Mus musculus [15]): Active |
| Cc1ccccc1NC(=O)CN(Cc1ccc2ccccc2c1)Cc1ccco1 | 15.9% | 5.91 | 70.6% | viability at 24 h [1]: 67.3%; Papp at 18 h, 25 ug/ml [4]: 5.67 ×10⁻⁶ cm/s; viability at 24 h [8]: 67.1%; viability at 24 h [11]: 69.4%; CC50 at 24 h [9]: 10.9 µM |
| Cc1ccc(NC(=O)CN(Cc2ccccc2)Cc2ccco2)cc1 | 12.8% | 3.83 | 37.5% |  |
| O=C(CN(Cc1ccccc1)Cc1ccco1)Nc1cnc2ccccc2c1 | 13.2% | 4.55 | 29.6% |  |
| CCCN(CCCc1ccccc1)Cc1ccc2ccccc2c1 | 21.4% | 5.84 | 80.3% | CC50 at 24 h [13]: 54.6 µM; CC50 at 24 h [14]: 77.8 µM; Papp at 18 h, 25 ug/ml [4]: 10.3 ×10⁻⁶ cm/s; pIC50 (Cholinesterase [5]): 7.52; viability at 24 h [11]: 62.6%; CC50 at 24 h [9]: 29 µM |
| CCN(CC)CCN(CC(=O)Nc1ccccc1C)Cc1ccc2ccccc2c1 | 20.1% | 5.84 | 85.6% | CC50 at 24 h [13]: 85.1 µM; CC50 at 24 h [14]: 40.6 µM; CC50 at 24 h [2]: 50.8 µM; Papp at 18 h, 25 ug/ml [4]: 10.6 ×10⁻⁶ cm/s; pIC50 (Cholinesterase [5]): 6.54; Activity (SH-SY5Y): inactive; CC50 at 24 h [9]: 24.2 µM |
| C[C@]12CC[C@@H]3c4ccc(O)cc4CC[C@H]3[C@@H]1CC[C@@H]2O [ESTRADIOL] |  |  |  | Papp at 18 h, 25 ug/ml [4]: 14.6 ×10⁻⁶ cm/s |
| CCCN(CC(=O)Nc1ccccc1C)Cc1ccc2ccccc2c1 | 22.9% | 6.72 | 91.3% | CC50 at 24 h [14]: 45.9 µM; Papp at 18 h, 25 ug/ml [4]: 11.9 ×10⁻⁶ cm/s; pIC50 (Cholinesterase [5]): 7.57; viability at 24 h [8]: 51.6%; viability at 24 h [11]: 52.8%; CC50 at 24 h [9]: 17.6 µM |
| Cc1ccccc1NC(=O)CN(Cc1ccc2ccccc2c1)CC(C)(C)C | 19.6% | 5.39 | 64.6% |  |
| Cc1cccc(NC(=O)CN(Cc2ccco2)Cc2c[nH]c3ccccc23)c1C | 18.2% | 4.96 | 52.3% |  |
| Cc1cccc(NC(=O)CN(Cc2ccc3ccccc3c2)Cc2ccco2)c1 | 15.1% | 5.76 | 70.5% | viability at 24 h [1]: 105%; Papp at 18 h, 25 ug/ml [4]: 9.07 ×10⁻⁶ cm/s; viability at 24 h [8]: 91.4%; viability at 24 h [11]: 91.7%; CC50 at 24 h [9]: 24.9 µM |
| CC(C)CN(CCCc1ccccc1)Cc1ccc2ccccc2c1 | 19.4% | 5.39 | 54.7% | viability at 24 h [1]: 86.3%; Papp at 18 h, 25 ug/ml [4]: 9.87 ×10⁻⁶ cm/s; pIC50 (Cholinesterase [5]): 7.62; viability at 24 h [8]: 83.5%; viability at 24 h [11]: 155%; CC50 at 24 h [9]: 48.7 µM |
| O=C(CN(Cc1ccccc1)Cc1ccco1)Nc1cccc(F)c1 | 17.3% | 4.50 | 47% |  |

| SMILES | inhibition [3] | pIC50 (Cholinesterase [6]) | inhibition [7] | also measured |
| --- | --- | --- | --- | --- |
| O=C(CN(Cc1ccccc1)Cc1ccco1)Nc1ccc2ccccc2c1 | 13.9% | 5.01 | 50.4% |  |
| O=C(CN(Cc1ccccc1)Cc1ccco1)Nc1ccc(C(F)(F)F)cc1 | 13.4% | 5.17 | 50.9% |  |
| O=C(CN(Cc1ccccc1)Cc1ccco1)Nc1ccccc1 | 12.6% | 4.81 | 39.6% |  |
| O=C(CN(Cc1ccccc1)Cc1ccco1)Nc1ccc2c(c1)OCO2 | 15.2% | 5.08 | 57.3% |  |
| Cc1cccc(NC(=O)CN(Cc2ccco2)Cc2c[nH]c3ccccc23)c1 | 14.3% | 5.18 | 55.2% |  |
| Cc1cccc(NC(=O)CN(Cc2ccccc2)Cc2ccco2)c1 | 13.3% | 5.13 | 57.8% |  |
| Cc1ccccc1NC(=O)CN(Cc1ccco1)Cc1c[nH]c2ccccc12 | 14.2% | 5.36 | 64.7% |  |
| c1ccc(CCCN(Cc2ccc3ccccc3c2)Cc2ccco2)cc1 | 13.4% | 4.80 | 42.5% |  |
| O=C(CN(Cc1ccco1)Cc1ccco1)Nc1ccccc1 | 12.6% | 5.11 | 47.3% |  |
| O=C(CN(Cc1ccccc1)Cc1ccco1)Nc1ccc(F)cc1 | 14.5% | 4.55 | 47.1% |  |
| Cc1cccc(NC(=O)CN(Cc2ccc3ccccc3c2)Cc2ccco2)c1C | 15.3% | 4.96 | 48.1% |  |
| O=C(CN(Cc1ccccc1)Cc1ccco1)Nc1cccc2ccccc12 | 13.6% | 5.45 | 63% |  |
| COCCN(CC1CCCN(Cc2ccccc2)C1)S(=O)(=O)c1ccc2ccccc2c1 (centres undefined) |  |  |  | pIC50 (Cholinesterase [16]): < 5.00 |
| O=C(CN(Cc1ccco1)Cc1ccccc1[N+](=O)[O-])Nc1ccccc1 | 15.8% | 5.89 | 61.9% | Papp at 18 h, 25 ug/ml [4]: 4.93 ×10⁻⁶ cm/s |
| O=C(CN(Cc1ccccc1)Cc1ccco1)Nc1cccc(Br)c1 | 13.4% | 5.21 | 54.7% |  |
| O=C(CN(Cc1ccccc1)Cc1ccco1)Nc1cccc(F)c1F | 18% | 4.88 | 50.1% |  |
| Cc1ccccc1NC(=O)CN(Cc1ccc2ccccc2c1)C1CCCCC1 | 25.3% | 5.37 | 57.5% |  |
| N#Cc1ccc(NC(=O)CN(Cc2ccccc2)Cc2ccco2)cc1 | 9.68% | 3.15 | 28.6% |  |
| COc1ccccc1NC(=O)CN(Cc1ccccc1)Cc1ccco1 | 14.7% | 4.58 | 44.2% |  |
| COc1ccc(NC(=O)CN(Cc2ccccc2)Cc2ccco2)cc1 | 18.2% | 3.92 | 21.6% |  |
| N#Cc1ccccc1NC(=O)CN(Cc1ccccc1)Cc1ccco1 | 10.3% | 3.93 | 36.6% |  |
| COc1cccc(NC(=O)CN(Cc2ccccc2)Cc2ccco2)c1 | 9.2% | 4.61 | 50.1% |  |
| O=C(CN(Cc1ccco1)Cc1c[nH]c2ccccc12)Nc1ccccc1 | 26.2% | 5.67 | 65.3% | CC50 at 24 h [13]: 59.6 µM; CC50 at 24 h [14]: 40.4 µM; CC50 at 24 h [2]: 42.2 µM; Papp at 18 h, 25 ug/ml [4]: 7.3 ×10⁻⁶ cm/s; CC50 at 24 h [9]: 27.5 µM |
